For one compound, Kd results are on record in ChEMBL document CHEMBL5727115, “TYK2 inhibitors and uses thereof” (2019).

For the assay, the target named is Non-receptor tyrosine-protein kinase TYK2 (Homo sapiens, UniProt P29597). Nature of the assay: TYK2 JH2 Domain Binding Assay: Binding constants for compounds of the present invention against the JH2 domain were determined by the following protocol for a KINOMEscan® assay (DiscoveRx). A fusion protein of a partial length construct of human TYK2 (JH2domain-pseudokinase) (amino acids G556 to D888 based on reference sequence NP_003322.3) and the DNA binding domain of NFkB was expressed in transiently transfected HEK293 cells. From these HEK 293 cells, extracts were prepared in M-PER extraction buffer (Pierce) in the presence of Protease Inhibitor Cocktail Complete (Roche) and Phosphatase Inhibitor Cocktail Set II (Merck) per manufacturers' instructions. The TYK2 (JH2domain-pseudokinase) fusion protein was labeled with a chimeric double-stranded DNA tag containing the NFkB binding site (5′-GGGAATTCCC-3′ (SEQ ID NO: 1)) fused to an amplicon for qPCR readout, which was added directly to the expression extract (the final concentration of DNA-tag in the binding reaction is 0.1 nM).Streptavidin-coated magnetic beads (Dynal M280) were treated with a biotinylated small molecule ligand for 30 minutes at room temperature to generate affinity resins the binding assays. […]. The assay is classed as cell-based.

SMILES strings stand for the structures.

Non-receptor tyrosine-protein kinase TYK2, sequence (P29597 whole entry, the tested form may be a part): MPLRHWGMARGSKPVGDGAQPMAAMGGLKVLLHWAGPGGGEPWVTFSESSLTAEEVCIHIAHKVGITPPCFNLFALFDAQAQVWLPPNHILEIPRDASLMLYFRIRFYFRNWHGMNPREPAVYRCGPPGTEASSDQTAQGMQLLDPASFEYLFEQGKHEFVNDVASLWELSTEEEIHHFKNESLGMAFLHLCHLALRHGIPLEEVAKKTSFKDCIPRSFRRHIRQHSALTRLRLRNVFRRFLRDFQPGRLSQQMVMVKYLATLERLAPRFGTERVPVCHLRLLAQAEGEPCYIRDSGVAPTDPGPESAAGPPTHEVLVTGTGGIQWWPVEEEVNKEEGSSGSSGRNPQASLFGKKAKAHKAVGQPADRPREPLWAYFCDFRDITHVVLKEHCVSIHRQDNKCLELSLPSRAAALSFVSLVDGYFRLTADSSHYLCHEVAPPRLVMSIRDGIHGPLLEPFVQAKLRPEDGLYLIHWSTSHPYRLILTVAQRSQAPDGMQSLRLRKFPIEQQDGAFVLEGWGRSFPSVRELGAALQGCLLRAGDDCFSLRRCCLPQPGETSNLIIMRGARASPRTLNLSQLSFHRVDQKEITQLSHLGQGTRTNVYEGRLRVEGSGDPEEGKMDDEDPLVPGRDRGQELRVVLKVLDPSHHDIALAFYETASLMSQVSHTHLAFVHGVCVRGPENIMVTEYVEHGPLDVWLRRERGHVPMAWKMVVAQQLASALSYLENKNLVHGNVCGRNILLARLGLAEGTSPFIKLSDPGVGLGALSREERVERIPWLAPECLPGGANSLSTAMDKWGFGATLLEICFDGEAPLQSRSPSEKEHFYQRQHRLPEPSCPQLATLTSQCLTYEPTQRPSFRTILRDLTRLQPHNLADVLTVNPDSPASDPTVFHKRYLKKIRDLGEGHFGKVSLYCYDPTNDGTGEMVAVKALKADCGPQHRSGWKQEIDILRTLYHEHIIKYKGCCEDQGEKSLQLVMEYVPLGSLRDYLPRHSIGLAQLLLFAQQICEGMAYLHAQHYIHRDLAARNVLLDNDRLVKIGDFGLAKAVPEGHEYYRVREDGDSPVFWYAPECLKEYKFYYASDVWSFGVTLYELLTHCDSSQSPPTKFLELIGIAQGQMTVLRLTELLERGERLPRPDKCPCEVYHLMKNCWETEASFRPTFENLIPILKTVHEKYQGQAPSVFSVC

For `COc1cc(Cl)ccc1Nc1cc(Nc2cc(C)ccn2)nc2[nH]n(C)c(=O)c12`, the Kd is above 10 nM.
